{
  "source": "patent US20090281054A1",
  "about": "“COMPOSITIONS AND METHODS COMPRISING CAPURAMYCIN ANALOGUES” (priority 2008, published 2009)",
  "key": {"[1]": {"system": "Mycobacteria (all mycobacterial species tested)", "assay": "In vitro MIC and MBC across mycobacterial species", "assay_type": "cell-based", "details": "NTM tested (Table 5)"}, "[2]": {"system": "M. abscessus (MAB; ATCC 700869)", "assay": "MIC by microdilution method in 7H9 broth", "assay_type": "cell-based", "details": "Mycobacteroides abscessus, ATCC700869; MAB 700869; read-out: MIC"}, "[3]": {"system": "MTB inside macrophages", "assay": "Intracellular activity of DMSO-solubilized drug in MTB infected macrophages", "assay_type": "cell-based, Mycobacterium tuberculosis", "details": "for Mean RLU at Day 7: Day 0 RLU 443, Control Day 7 4251"}, "[4]": {"system": "Mycobacterium tuberculosis (MTB)", "assay": "MIC by BACTEC radiometric method", "assay_type": "cell-based", "protocol": "Determination of MIC. MIC of drugs for laboratory and clinical strains of Mycobacterium tuberculosis (MTB) was determined by BACTEC radiometric method as described by Heifets (1991), “Antituberculosis Drugs: Antimicrobial Activity in vitro, Drug Susceptibility in the Chemotherapy of Microbacterial Infections, Boca Raton, Fla., CRC Press and Luna-Herrera et al., Antimicrob. Agents and Chemother. 1995, 39(2), 440-444. […] The minimal inhibitory concentration (MIC) was defined as the lowest concentrations of drug that caused GI equal to or less than that of the 1/100 dilution growth control. Capuramycin analogues SQ641, SQ922 and SQ997 were tested at concentrations ranging from […]."}, "[5]": {"system": "MTB cultures", "assay": "Induction of morphological changes and bacterial disintegration", "assay_type": "cell-based, Mycobacterium tuberculosis", "text": "Induction of morphological changes and bacterial disintegration. […] Tubercle bacilli exposed to CM analogues were typically club-shaped, with deeply stained swollen ends (see Reddy et al. Antimicrob. Agents Chemother., 2008, 52(2), 719-721)."}, "[6]": {"system": "MTB", "assay": "Activity in acidic pH (microdilution in 7H9 broth)", "assay_type": "cell-based, Mycobacterium tuberculosis", "details": "pH 7.0 to 5.0", "text": "Activity in acidic pH. The pH in macrophage phagolysomes is ˜5.5. To be effective against intracellular organisms, anti-TB drugs should concentrate inside macrophages and be active in an acidic environment. The activity of SQ641 against MTB was investigated by microdilution method in 7H9 broth at different hydrogen ion concentrations."}, "[7]": {"system": "MTB-H37Rv", "assay": "Post-antibiotic effect (PAE)", "assay_type": "cell-based, Mycobacterium tuberculosis", "protocol": "PAE of SQ641. PAE of SQ641 was determined as described (Chan et al. Antimicrob. Agents Chemother., 2004, 48(1), 340-343). At the end of incubation, suspensions were diluted 1/25, and 0.1 ml was injected into each of triplicate BACTEC vials: drug dilution was 1000-fold in the BACTEC vials. Drug carryover controls (to ascertain absence of any carryover drug) consisting of the same MTB suspension as in the test and similar drug dilutions were mixed immediately, diluted 1/25, and 0.1 ml was injected into BACTEC vials. BACTEC vials were incubated at 37° C. and read in a BACTEC TB-460 reader every 24 hr until the cumulative GI in the control reached 999. PAE was calculated from the formula PAE=T−C, where T is the time required for the drug-exposed organisms to reach a cumulative GI of 100 and C is the time required for the controls to reach a cumulative GI of 100.\nPAE determines the time required for the organisms to recover following exposure to an antimicrobial agent for a short duration. PAE activities of both SQ641 and INH, each at 4 μg/ml, were investigated with MTB-H37Rv. Following 2 hr of exposure to drugs, the PAE of INH was 17 hr as compared to 55 hr for SQ641. The PAE of SQ641 was over 3 times that of INH."}, "[8]": {"system": "MTB in J774 cells", "assay": "Intracellular activity of amino acid conjugates", "assay_type": "cell-based, Mycobacterium tuberculosis", "details": "day 0 RLU 775, Control day 7 31700", "protocol": "The amino acid conjugates were tested at concentrations of 4 mg/mL and 8 mg/mL compared with a control and isoniazid (INH).\nThe intracellular activity against MTB by capuramycin amino acid derivatives was tested. Cells J774 were infected with MTB and treated for 7 days with the amino acid derivative. The mean Relative Light Unites (RLU), an estimation of bacterial viability, was measured as described in Snewin et al., Infect. Immun., 1999, 67(9), 4586-4593)."}, "[9]": {"system": "MTB-pSMT1 luciferase reporter strain", "assay": "Activity against slowly replicating (hypoxic) MTB", "assay_type": "cell-based", "details": "Mycobacterium tuberculosis"}},
  "data": [
    {"smiles": "CCCCCCCCCC(=O)O[C@@H]1[C@H](OC)[C@@H]([C@@H](O[C@H]2OC(C(=O)N[C@H]3CCC[C@@H](C)NC3=O)=C[C@H](O)[C@@H]2O)C(N)=O)O[C@H]1n1ccc(=O)[nH]c1=O", "note": "[SQ641]", "values": [
      {"measurement": "MIC90", "setting": "[1]", "result": 2, "unit": "µg/mL"},
      {"measurement": "MIC", "setting": "[2]", "result": 0.5, "unit": "µg/mL"},
      {"measurement": "Mean RLU at Day 7", "setting": "[3]; 1 μg/ml", "result": 1208, "unit": "RLU"},
      {"measurement": "Mean RLU at Day 7", "setting": "[3]; 2 μg/ml", "result": 1162, "unit": "RLU"},
      {"measurement": "Mean RLU at Day 7", "setting": "[3]; 4 μg/ml", "result": 1116, "unit": "RLU"},
      {"measurement": "Mean RLU at Day 7", "setting": "[3]; 8 μg/ml", "result": 441, "unit": "RLU"},
      {"measurement": "Mean RLU at Day 7", "setting": "[3]; 16 μg/ml", "result": 253, "unit": "RLU"},
      {"measurement": "Mean RLU at Day 7", "setting": "[3]; 32 μg/ml", "result": 190, "unit": "RLU"},
      {"measurement": "Intracellular activity (FIG. 1)", "setting": "[3]; 1× and 2× MIC", "result": "showed intracellular activities"},
      {"measurement": "MIC", "setting": "[4]; H37RV, MTB strain H37Rv", "result": 1, "unit": "µg/mL"},
      {"measurement": "MIC90", "setting": "[4]; MTB", "result": 4, "unit": "µg/mL"},
      {"measurement": "MIC", "setting": "[4]; MTB strain 16", "result": 4, "unit": "µg/mL"},
      {"measurement": "MIC", "setting": "[4]; MTB strain 113", "result": 1, "unit": "µg/mL"},
      {"measurement": "MIC", "setting": "[4]; MTB strain 158", "result": 4, "unit": "µg/mL"},
      {"measurement": "MIC", "setting": "[4]; MTB strain 606", "result": 4, "unit": "µg/mL"},
      {"measurement": "MIC", "setting": "[4]; MTB strain 847", "result": 4, "unit": "µg/mL"},
      {"measurement": "MIC", "setting": "[4]; MTB strain 1351", "result": 1, "unit": "µg/mL"},
      {"measurement": "MIC", "setting": "[4]; MTB strain 1407", "result": 2, "unit": "µg/mL"},
      {"measurement": "MIC", "setting": "[4]; MTB strain 1498", "result": 4, "unit": "µg/mL"},
      {"measurement": "MIC", "setting": "[4]; MTB strain 1665", "result": 2, "unit": "µg/mL"},
      {"measurement": "MIC", "setting": "[4]; MTB strain 1703", "result": 4, "unit": "µg/mL"},
      {"measurement": "MIC", "setting": "[4]; MTB strain 1760", "result": 8, "unit": "µg/mL"},
      {"measurement": "MIC", "setting": "[4]; MTB strain 1782", "result": 2, "unit": "µg/mL"},
      {"measurement": "MIC", "setting": "[4]; MTB strain 1901", "result": 4, "unit": "µg/mL"},
      {"measurement": "MIC", "setting": "[4]; MTB strain 1921", "result": 4, "unit": "µg/mL"},
      {"measurement": "MIC", "setting": "[4]; MTB strain 2224", "result": 4, "unit": "µg/mL"},
      {"measurement": "MIC", "setting": "[4]; MTB strain 2554", "result": 4, "unit": "µg/mL"},
      {"measurement": "MIC", "setting": "[4]; MTB strain 2693", "result": 8, "unit": "µg/mL"},
      {"measurement": "MIC", "setting": "[4]; MTB strain 8266", "result": 2, "unit": "µg/mL"},
      {"measurement": "MIC", "setting": "[4]; MTB strain 8642", "result": 4, "unit": "µg/mL"},
      {"measurement": "Bacterial disintegration / clearance of MTB cultures", "setting": "[5]; MTB cultures", "result": "rapid bacterial disintegration"},
      {"measurement": "Turbidity of MTB cultures", "setting": "[5]; within 2 days of exposure", "result": "marked fall in the turbidity"},
      {"measurement": "Activity at different hydrogen ion concentrations", "setting": "[6]", "result": "no loss"},
      {"measurement": "PAE (post-antibiotic effect)", "setting": "[7]; 4 μg/ml, 2 hr of exposure", "result": 55, "unit": "h"},
      {"measurement": "PAE of SQ641 relative to INH", "setting": "[7]; each at 4 μg/ml", "result": "over 3 times"},
      {"measurement": "Mean RLU on day 7", "setting": "[8]; 4 μg/ml", "result": 4707, "unit": "RLU"},
      {"measurement": "Mean RLU on day 7", "setting": "[8]; 8 μg/ml", "result": 2755, "unit": "RLU"},
      {"measurement": "MIC", "setting": "[9]", "result": 0.5, "unit": "µg/mL"}
    ]}
  ]
}
